Test results from patent publication US7064120B2, “Tricyclic pyridyl carboxamides and derivatives thereof tocolytic oxytocin receptor antagonists” (Wyeth, priority 2001, dated 2006).

biological target: T1, human vasopressin V2 receptor subtype (Homo sapiens, UniProt P30518); assay: Vasopressin binding in CHO cell membranes expressing human vasopressin V2 subtype receptors ([3H]arginine vasopressin radioligand binding); details: 100 nM
T1 construct: host or cells: CHO cells, stably transfected (pZeoSV vector)
Procedure, shortened: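 Membranes from CHO cells stably expressing human V2 receptor (25 to 50 μg protein/well) incubated 60 min at room temperature with [3H]arginine vasopressin in Tris-HCl pH 7.4 buffer with MgCl2, BSA and protease inhibitors. Filtration, scintillation counting; percent inhibition at one concentration or IC50 (nM).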

T1 sequence (P30518 whole entry): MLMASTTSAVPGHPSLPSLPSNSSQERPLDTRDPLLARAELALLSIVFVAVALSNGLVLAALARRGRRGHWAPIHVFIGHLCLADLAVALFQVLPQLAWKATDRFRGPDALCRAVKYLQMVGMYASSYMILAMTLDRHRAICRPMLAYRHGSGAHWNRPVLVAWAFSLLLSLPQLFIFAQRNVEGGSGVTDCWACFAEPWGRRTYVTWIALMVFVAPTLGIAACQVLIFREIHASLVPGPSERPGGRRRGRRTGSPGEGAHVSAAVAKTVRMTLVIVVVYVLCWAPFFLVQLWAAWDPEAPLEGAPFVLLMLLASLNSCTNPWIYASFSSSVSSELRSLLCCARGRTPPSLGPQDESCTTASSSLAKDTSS

First: COc1cccc(-c2ccc(C(=O)N3Cc4ccc(C(=O)N(C)CCc5ccncc5)n4Cc4ccccc43)cc2C)c1 [Example 128, 10-[(3′-Methoxy-2-methyl-[1,1′-biphenyl]-4-yl)carbonyl]-N-methyl-N-[2-(4-pyridinyl)ethyl]-10,11-dihydro-5H-pyrrolo[2,1-c][1,4]benzodiazepine-3-carboxamide]
Second: COc1cccc(-c2ccc(C(=O)N3Cc4ccc(C(=O)N(C)CCc5ccncc5)n4Cc4ccccc43)cc2OC)c1 [Example 135, 10-[(2,3′-Dimethoxy-[1,1′-biphenyl]-4-yl)carbonyl]-N-methyl-N-[2-(4-pyridinyl)ethyl]-10,11-dihydro-5H-pyrrolo[2,1-c][1,4]benzodiazepine-3-carboxamide]
The inhibition at 0.1 µM of the first is lower: 10% for the first, 35% for the second.

Compared with `COc1ccccc1-c1ccc(C(=O)N2Cc3ccc(C(=O)N(C)CCc4ccncc4)n3Cc3ccccc32)cc1` [Example 129, 10-[(2′-Methoxy-[1,1′-biphenyl]-4-yl)carbonyl]-N-methyl-N-[2-(4-pyridinyl)ethyl]-10,11-dihydro-5H-pyrrolo[2,1-c][1,4]benzodiazepine-3-carboxamide], `Cc1ccccc1-c1ccc(C(=O)N2Cc3ccc(C(=O)N(C)CCc4ccncc4)n3Cc3ccccc32)cc1` [Example 130, N-Methyl-10-[(2′-methyl-[1,1′-biphenyl]-4-yl)carbonyl]-N-[2-(4-pyridinyl)ethyl]-10,11-dihydro-5H-pyrrolo[2,1-c][1,4]benzodiazepine-3-carboxamide] is lower in inhibition at 0.1 µM: 28% for the first, 12% for the second.

Compared with `COc1cc(C(=O)N2Cc3ccc(C(=O)N(C)CCc4ccncc4)n3Cc3ccccc32)ccc1-c1ccccc1C` [Example 131, 10-[(2-Methoxy-2′-methyl-[1,1′-biphenyl]-4-yl)carbonyl]-N-methyl-N-[2-(4-pyridinyl)ethyl]-10,11-dihydro-5H-pyrrolo[2,1-c][1,4]benzodiazepine-3-carboxamide], `COc1cc(C(=O)N2Cc3ccc(C(=O)N(C)CCc4ccncc4)n3Cc3ccccc32)ccc1-c1cccc2ccccc12` [Example 134, 10-[3-Methoxy-4-(naphthalen-1-yl)benzoyl]-N-methyl-N-[2-(4-pyridinyl)ethyl]-10,11-dihydro-5H-pyrrolo[2,1-c][1,4]benzodiazepine-3-carboxamide] is higher in inhibition at 0.1 µM: -5% for the first, 1% for the second.

Compared with `COc1cc(-c2ccccc2C)c(Cl)cc1C(=O)N1Cc2ccc(C(=O)N(C)CCc3ccncc3)n2Cc2ccccc21` [Example 132, 10-[(6-Chloro-3-methoxy-2′-methyl-[1,1′-biphenyl]-4-yl)carbonyl]-N-methyl-N-[2-(4-pyridinyl)ethyl]-10,11-dihydro-5H-pyrrolo[2,1-c][1,4]benzodiazepine-3-carboxamide], `COc1cccc(-c2cc(OC)c(C(=O)N3Cc4ccc(C(=O)N(C)CCc5ccncc5)n4Cc4ccccc43)cc2Cl)c1` [Example 133, 10-[(6-Chloro-3,3′-dimethoxy-[1,1′-biphenyl]-4-yl)carbonyl]-N-methyl-N-[2-(4-pyridinyl)ethyl]-10,11-dihydro-5H-pyrrolo[2,1-c][1,4]benzodiazepine-3-carboxamide] is lower in inhibition at 0.1 µM: 25% for the first, 15% for the second.

Compared with `CN(CCc1ccncc1)C(=O)c1ccc2n1Cc1ccccc1N(C(=O)c1ccc(-c3cccc4ccccc34)cc1Cl)C2` [Example 136, 10-[2-Chloro-4-(naphthalen-1-yl)benzoyl]-N-methyl-N-[2-(4-pyridinyl)ethyl]-10,11-dihydro-5H-pyrrolo[2,1-c][1,4]benzodiazepine-3-carboxamide], `Cc1cc(C(=O)N2Cc3ccc(C(=O)N(C)CCc4ccncc4)n3Cc3ccccc32)ccc1-c1ccccc1C(F)(F)F` [Example 137, N-Methyl-10-{[2-methyl-2′-trifluoromethyl-[1,1′-biphenyl]-4-yl]carbonyl}-N-[2-(4-pyridinyl)ethyl]-10,11-dihydro-5H-pyrrolo[2,1-c][1,4]benzodiazepine-3-carboxamide] is lower in inhibition at 0.1 µM: 19% for the first, 11% for the second.

Compared with `COc1ccccc1-c1ccc(C(=O)N2Cc3ccc(C(=O)N4CCCCC4c4cccnc4)n3Cc3ccccc32)cc1C` (stereo not shown) [Example 138, {10-[(2′-Methoxy-2-methyl-[1,1′-biphenyl]-4-yl)carbonyl]-10,11-dihydro-5H-pyrrolo[2,1-c][1,4]benzodiazepin-3-yl}[2-(3-pyridinyl)-1-piperidinyl]methanone], `COc1ccccc1-c1ccc(C(=O)N2Cc3ccc(C(=O)N4CCCCC4c4cccnc4)n3Cc3ccccc32)cc1OC` (stereo not shown) [Example 141, {10-[(2,2′-Dimethoxy-[1,1′-biphenyl]-4-yl)carbonyl]-10,11-dihydro-5H-pyrrolo[2,1-c][1,4]benzodiazepin-3-yl}[2-(3-pyridinyl)-1-piperidinyl]methanone] is lower in inhibition at 0.1 µM: 42% for the first, 40% for the second.

Compared with `COc1ccccc1-c1ccc(C(=O)N2Cc3ccc(C(=O)N4CCCCC4c4cccnc4)n3Cc3ccccc32)cc1` (stereo not shown) [Example 139, {10-[(2′-Methoxy-[1,1′-biphenyl]-4-yl)carbonyl]-10,11-dihydro-5H-pyrrolo[2,1-c][1,4]benzodiazepin-3-yl}[2-(3-pyridinyl)-1-piperidinyl]methanone], `Cc1cc(C(=O)N2Cc3ccc(C(=O)N4CCCCC4c4cccnc4)n3Cc3ccccc32)ccc1-c1ccccc1C(F)(F)F` (stereo not shown) [Example 142, (10-{[2-Methyl-2′-trifluoromethyl-[1,1′-biphenyl]-4-yl]carbonyl}-10,11-dihydro-5H-pyrrolo[2,1-c][1,4]benzodiazepin-3-yl)[2-(3-pyridinyl)-1-piperidinyl]methanone] is lower in inhibition at 0.1 µM: 34% for the first, 16% for the second.

First: COc1cc(-c2ccccc2C)c(Cl)cc1C(=O)N1Cc2ccc(C(=O)N3CCCCC3c3cccnc3)n2Cc2ccccc21 (stereo not shown) [Example 140, {10-[(6-Chloro-3-methoxy-2′-methyl-[1,1′-biphenyl]-4-yl)carbonyl]-10,11-dihydro-5H-pyrrolo[2,1-c][1,4]benzodiazepin-3-yl}[2-(3-pyridinyl)-1-piperidinyl]methanone]
Second: COc1cc(C(=O)N2Cc3ccc(C(=O)N4CCN(c5ccccn5)CC4)n3Cc3ccccc32)ccc1-n1c(C)ccc1C [Example 145, {10-[4-(2,5-Dimethyl-1H-pyrrol-1-yl)-3-methoxybenzoyl]-10,11-dihydro-5H-pyrrolo[2,1-c][1,4]benzodiazepin-3-yl}[4-(pyridin-2-yl)-1-piperazinyl]methanone]
The inhibition at 0.1 µM of the first is higher: 29% for the first, 2% for the second.

Compared with `COc1cc(C(=O)N2Cc3ccc(C(=O)N(C)CCc4ccccn4)n3Cc3ccccc32)ccc1-n1c(C)ccc1C` [Example 144, 10-[4-(2,5-Dimethyl-1H-pyrrol-1-yl)-3-methoxybenzoyl]-N-methyl-N-[2-(pyridin-2-yl)ethyl]-10,11-dihydro-5H-pyrrolo[2,1-c][1,4]benzodiazepine-3-carboxamide], `COc1cc(C(=O)N2Cc3ccc(C(=O)N(C)CCc4ccncc4)n3Cc3ccccc32)ccc1-n1c(C)ccc1C` [Example 147, 10-[4-(2,5-Dimethyl-1H-pyrrol-1-yl)-3-methoxybenzoyl]-N-methyl-N-[2-(pyridin-4-yl)ethyl]-10,11-dihydro-5H-pyrrolo[2,1-c][1,4]benzodiazepine-3-carboxamide] is higher in inhibition at 0.1 µM: 2% for the first, 21% for the second.

Compound `COc1cc(C(=O)N2Cc3ccc(C(=O)N4CCN(c5ccncc5)CC4)n3Cc3ccccc32)ccc1-n1c(C)ccc1C` [Example 146, {10-[4-(2,5-Dimethyl-1H-pyrrol-1-yl)-3-methoxybenzoyl]-10,11-dihydro-5H-pyrrolo[2,1-c][1,4]benzodiazepin-3-yl}[4-(pyridin-4-yl)-1-piperazinyl]methanone] has an inhibition at 0.1 µM of 15%.
